Measured values: publication PMC7066533 (Frontiers in Pharmacology, 2020)
Values joined by “and” are separate entries in the source; they are usually repeats but may differ in a detail not shown here. Equal values may be shown once. Read-outs that look alike come from different tables or passages of the source. Square brackets hold non-standard residues; d marks the D form. Peptide text beside a SMILES is read from it. βAla = NCCC(=O)O

Experiments:
[1] = tested on: U87-MG cells; assay: Cell proliferation assay ([3H]-thymidine incorporation) in U87-MG cells; assay type: cell-based, human
Method: A cell proliferation assay was carried out as previously reported ([Bedini et al., 2017]). Briefly, U87-MG cells or normal human astrocytes were plated on a 12-well plate and treated as described in the results section or maintained in cell culture medium containing 10% fetal bovine serum. Five hours before the end of the treatments, [methyl-^3H] thymidine (Perkin Elmer) (50 nM final concentration) was added to serum-free cell culture medium, and the plate was incubated at 37°C. Thereafter, the medium was removed, and the cells were washed twice with PBS. Then, 200 μl of PBS was added to each well, and the cells were scraped off and centrifuged at 13,000 g for 3 min at 4°C. The supernatants were then discarded, pellets were re-suspended in 500 μl of cold trichloroacetic acid (10% w/v), incubated on ice for 20 min and centrifuged at 13,000 g for 3 min at 4°C. The supernatant was then discarded, and the pellet was suspended in 500 μl of cold methanol and centrifuged at 3 min for 13,000 g at 4°C. Thereafter, the pellet was suspended in 200 μl of 1 N NaOH and heated at 55°C for 10 min. Samples were then neutralized with 200 μl of 1 N HCl and 350 μl of the labelled DNA incubated in counting vials with 4 ml of Filter Count scintillation liquid (Perkin Elmer Italia). Vials were vortexed and incubated overnight at room temperature, and the radioactivity was determined by liquid scintillation spectrometry.

[2] = tested on: normal human astrocytes; assay type: cell-based; details: SB203580 2 µM, 30 min prior to U50,488
[3] = molecular target: T1, hMOPr (Homo sapiens, UniProt P35372); assay: Displacement binding assay with [3H]DAMGO on HEK-293/hMOPr membranes
T1 construct: expressed in transfected cells
T1 sequence (P35372 whole entry): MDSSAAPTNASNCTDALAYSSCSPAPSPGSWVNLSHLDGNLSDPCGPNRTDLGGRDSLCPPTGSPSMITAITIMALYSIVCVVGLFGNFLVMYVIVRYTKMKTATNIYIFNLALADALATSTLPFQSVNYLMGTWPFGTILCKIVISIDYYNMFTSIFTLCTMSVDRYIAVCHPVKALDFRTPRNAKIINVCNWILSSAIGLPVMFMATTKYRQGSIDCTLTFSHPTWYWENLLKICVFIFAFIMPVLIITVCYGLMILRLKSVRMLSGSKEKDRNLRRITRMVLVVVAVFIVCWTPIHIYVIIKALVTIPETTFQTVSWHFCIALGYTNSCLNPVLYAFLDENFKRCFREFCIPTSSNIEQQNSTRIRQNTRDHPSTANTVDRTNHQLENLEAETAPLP

[4] = molecular target: T2, hDOPr (Homo sapiens, UniProt P41143); assay: Displacement binding assay with [3H]diprenorphine on HEK-293/hDOPr membranes
T2 construct: expressed in transfected cells
T2 sequence (P41143 whole entry): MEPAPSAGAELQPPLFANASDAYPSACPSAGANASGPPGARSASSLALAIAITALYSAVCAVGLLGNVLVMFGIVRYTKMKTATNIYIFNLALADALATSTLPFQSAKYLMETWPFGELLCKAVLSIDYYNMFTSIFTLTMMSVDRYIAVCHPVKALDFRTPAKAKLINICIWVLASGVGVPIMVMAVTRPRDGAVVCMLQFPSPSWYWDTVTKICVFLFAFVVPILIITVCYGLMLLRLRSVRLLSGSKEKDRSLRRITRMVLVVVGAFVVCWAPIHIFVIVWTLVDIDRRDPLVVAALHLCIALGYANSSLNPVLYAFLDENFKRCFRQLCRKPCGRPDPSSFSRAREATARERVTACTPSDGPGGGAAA

[5] = molecular target: T3, KOPr (Homo sapiens, UniProt P41145); assay: cell-based
T3 sequence (P41145 whole entry): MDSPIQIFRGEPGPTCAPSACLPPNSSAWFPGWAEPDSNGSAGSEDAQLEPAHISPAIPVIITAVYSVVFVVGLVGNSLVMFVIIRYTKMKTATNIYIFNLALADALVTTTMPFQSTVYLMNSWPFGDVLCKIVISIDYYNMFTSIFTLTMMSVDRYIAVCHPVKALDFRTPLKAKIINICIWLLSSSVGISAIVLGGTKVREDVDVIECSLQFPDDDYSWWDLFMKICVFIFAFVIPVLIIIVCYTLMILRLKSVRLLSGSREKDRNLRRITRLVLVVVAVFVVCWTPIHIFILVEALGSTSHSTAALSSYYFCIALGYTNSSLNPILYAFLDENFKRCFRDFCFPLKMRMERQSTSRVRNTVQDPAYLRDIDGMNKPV

[6] = molecular target: KOPr in U87-MG human astrocytoma cells (Homo sapiens, UniProt P41145); assay: cell-based; details: U-87 MG, read-out: Emax U87-MG
KOPr in U87-MG human astrocytoma cells, sequence (P41145 whole entry): as above

[7] = molecular target: KOPr in normal human astrocytes (Homo sapiens, UniProt P41145); assay: cell-based; details: read-out: Emax NHA
KOPr in normal human astrocytes, sequence (P41145 whole entry): as above

[8] = molecular target: T3, KOPr; assay type: cell-based
[9] = tested on: hKOPr; assay type: cell-based, human
[10] = tested on: ERK1/2 phosphorylation; assay: ERK1/2 phosphorylation, western blot; assay type: cell-based, human
Method: HEK-293 cells stably expressing KOPr, U87-MG astrocytoma cells, or normal human astrocytes endogenously expressing KOPr were plated into 6-well plates until 60–70% confluence was reached. Then, the cells were serum-starved for 16–18 h and subsequently exposed to vehicle, LOR17 (1 μM; 0–120 min) or U50,488 (1 μM; 0–120 min). Alternatively, […] and U87-MG cells were exposed to norBNI (10 μM; 30 min prior to LOR17) and then treated with 1 μM LOR17, or they were exposed to increasing concentration of LOR17 (1–100 μM; 30 min). Proteins were extracted as previously reported ([Kuhar et al., 2015]), quantified by means of BCA assay (Pierce) and SDS-page gel electrophoresis performed as previously described for ERK1/2 ([Baiula et al., 2016]) and p38MAPK ([Schattauer et al., 2012]).
Membranes were then incubated with anti-phospho-ERK 1/2 (1:1,000) (Cell Signaling Technology, Danvers, MA, USA), anti-total ERK1/2 antibodies (1:1,000) (Cell Signaling Technology), anti-phospho-p38MAPK antibodies (1:1,000) (Cell Signaling Technology, Danvers, MA, USA), or anti-actin antibodies (1:2,500) (Santa Cruz Biotechnology, Dallas, TX, USA) at 4°C in the presence of BSA (5 g/100 ml) in Tris buffered saline containing Tween-20 (0.1 g/100 ml). […]

[11] = tested on: p38MAPK phosphorylation; assay type: cell-based, human
[12] = tested on: CD-1 adult male mice; assay: Warm-water tail-withdrawal test; assay type: in vivo, mouse
Method: The warm-water tail-withdrawal test was performed as previously described ([Bedini et al., 2010]). Briefly, a mouse’s tail was immersed in hot water (52 ± 0.5°C), and the latency to tail withdrawal was measured as an indicator of nociception. Prior to being treated, each mouse was tested, and the latency to tail withdrawal was recorded (control latency, CL). Animals not withdrawing their tails within 5 s were not used (6% of mice). Responding animals were then injected i.p. with either vehicle or one of the compounds (LOR17 or U50,488; 0–20 mg/kg). The KOR antagonist norBNI (10 mg/kg; i.p.) was injected 30 min or 24 h prior to administering LOR17.
Latency to withdrawal was measured at 5, 15, 30, 45, 60, and 90 min after drug administration and defined as the test latency (TL), with a cutoff time of 10 s.

[13] = tested on: CD-1 adult male mice; details: mouse, in vivo
[14] = tested on: CD-1 adult male mice; details: mouse, in vivo; remark: listed apart in the source
[15] = tested on: CD-1 adult male mice; assay: Hole-board test; assay type: in vivo, mouse; details: 10 mg/kg s.c.
Method: The hole-board test consisted of a […] plane with 16 flush-mounted cylindrical holes (3 cm diameter) distributed four by four in an equidistant, grid-like manner. Mice were placed on the center of the board one by one and allowed to move about freely for a period of 5 min. Two electric eyes, crossing the plane from midpoint to midpoint of the opposite sides, thus dividing the plane into four equal quadrants, automatically signaled the movement of the animal (counts in 5 min) on the surface of the plane (spontaneous motility). Miniature photoelectric cells in each of the 16 holes recorded (counts in 5 min) the exploration of the holes (exploratory activity) by the mice ([Guerrini et al., 2006]).

[16] = tested on: CD-1 adult male mice; details: mouse, in vivo; remark: listed apart in the source
[17] = norBNI 10 µM 15 min prior, SB203580 2 µM 30 min prior, LOR17 10 μM co-administered

C[S+]([O-])c1ccc(-c2nc(-c3ccncc3)c(-c3ccc(F)cc3)[nH]2)cc1 (stereo not drawn) [SB203580, reference compound]
Effect on U50,488 (1 µM)-mediated increase of U87-MG cell proliferation [1, 17]: prevented | Effect on U50,488 (1 µM)-enhanced normal human astrocyte cell proliferation [2]: abolished

O=C1CNC(=O)[C@H](Cc2ccccc2)NC(=O)[C@@H](Cc2c[nH]c3ccccc23)NC(=O)CCN1 [LOR17, c[Phe-Gly-(β-Ala)-D-Trp]] (cyclo(FG[βAla][dW]))
Ki [3]: > 100 µM | Ki [4]: > 100 µM | log(τ/KA) G Protein [5]: 8,856 | Δlog(τ/KA) G Protein [5]: 0,261 | Emax ([5]; HEK293, read-out: Emax HEK-293/KOR): 85 ± 5% | Emax [6]: 87 ± 4% | Emax [7]: 88 ± 6% | log(τ/KA) β-arrestin 2 [8]: 3,432 | Δlog(τ/KA) β-arrestin 2 [8]: -2,67 | β-arrestin 2 recruitment at KOPr [8]: very week β-arrestin 2 recruitment at KOPr and only at concentrations higher than 1 μM | Bias Factor [9]: 853 | ΔΔlog(τ/KA) [9]: 2,931 | ERK1/2 phosphorylation levels vs vehicle [10]: significant increase in ERK1/2 phosphorylation only after 15 min of exposure | Effect on U50,488-induced p38MAPK phosphorylation [11]: counteracted U50,488-induced p38MAPK phosphorylation in a concentration-dependent fashion | p38MAPK phosphorylation vs vehicle [11]: does not influence p38MAPK phosphorylation | Effect on U50,488 (1 µM)-mediated increase of U87-MG cell proliferation [1]: prevented the increase in U87-MG cell proliferation | U87-MG cell proliferation rate vs vehicle [1]: did not alter the U87-MG cell proliferation rate | Antinociception in the tail-withdrawal test ([12]; mouse, in vivo): antinociceptive response in a dose- and time-dependent fashion | ED50, warm-water tail-withdrawal test ([12]; mouse, in vivo, ip): 10.07 ± 0.36 mg/kg | Number of writhes vs vehicle [13]: significantly reduced the number of writhes | ED50, writhing test ([13]; ip): 5.74 ± 0.46 mg/kg | Effect on oxaliplatin-induced thermal hypersensitivity, single s.c. administration [14]: fully reversed the oxaliplatin-dependent hypersensitivity | Efficacy in cold plate test after repeated treatment [14]: maintains its efficacy | Licking latency (maximal effect) [14]: 18.2 ± 1.4 s and 19.6 ± 1.7 s | Dose from which licking latency increase takes effect ([14]; sc): 1 mg/kg | ED50, oxaliplatin-induced thermal hypersensitivity (cold plate test) ([14]; sc): 6.63 ± 0.23 mg/kg | Board (locomotor activity) ([15]; 0 min): 89.2 ± 7.3 counts in 5 min | Hole (exploratory activity) ([15]; 0 min): 37.2 ± 3.9 counts in 5 min | Board (locomotor activity) ([15]; 30 min): 97.2 ± 16.9 counts in 5 min | Hole (exploratory activity) ([15]; 30 min): 39.0 ± 4.6 counts in 5 min | Mobility time [16]: 91.6 ± 12.3 s

Oc1ccc2c3c1O[C@H]1c4[nH]c5c(c4C[C@@]4(O)[C@@H](C2)N(CC2CC2)CC[C@]314)C[C@@]1(O)[C@H]2Cc3ccc(O)c4c3[C@@]1(CCN2CC1CC1)[C@H]5O4 [norBNI, norbinaltorphimine, reference compound]
LOR17 (1 μM)-mediated increase in ERK1/2 phosphorylation after antagonist ([10]; norBNI 10 μM, 30 min prior to LOR17, HEK-293/hKOPr and U87-MG cells): fully reverted | Effect on U50,488 (1 µM)-mediated increase of U87-MG cell proliferation [1, 17]: prevented | Effect on LOR17-mediated antinociception in the tail-withdrawal test ([12]; norBNI 10 mg/kg i.p.): prevented
